Data as given in ChEMBL document CHEMBL3507680, “University of Dundee, Gates Library screen for HepG2 cell viability”.

Assay: Human HepG2 cell viability assay in 384 well format
Type: toxicity, cell-based
Parameters: dose 125 nL, time 70.5 hour; cytotoxicity at 70.5 h: concentration not given beside the values
Details: HepG2 cells, read-out: Inhibition

SMILES	cytotoxicity at 70.5 h
O=C1C(N2CCN(c3ccc(O)cc3)CC2)CCN1C1CCOCC1 (stereo not drawn)	24.5%
CC(C)=CCN1C[C@H]2CC[C@@H]1CN(Cc1coc(C)n1)C2	-5.37%
CC(=O)N1CCC(NC(=O)c2ccc3c(c2O)OC(C)(C)C3)CC1	-12.2%
CCc1nc(N2CCCC(CCOC)(C(=O)O)C2)ncc1C (stereo not drawn)	-4.01%
Cn1nc(C2CN(S(C)(=O)=O)C2)c2nccnc21	3.57%
Cc1ccc2c(c1)nc1n2[C@@H](CNC(=O)c2ccccn2)COC1	11.4%
CC(NCCCn1ccnc1)c1ccc(N2CCCS2(=O)=O)cc1 (stereo not drawn)	31%
CCC(C#N)NC(=O)c1ccc(Oc2cccnc2)cc1 (stereo not drawn)	-8.45%
CS(=O)(=O)Cc1ccc(C(=O)NCc2ccc(Cl)cc2Cl)cc1	-6.11%
COc1cc(C)nc(N2CCN(C(C)c3nc(C)no3)CC2)n1 (stereo not drawn)	-6.32%
CC(=O)N1CCCC(C(=O)NCCc2csc(-c3ccncc3)n2)C1 (stereo not drawn)	-5.2%
O=C(Nc1ccccc1OCCc1ccccn1)N1CC[C@@H](O)C1	-31%
CC(C)COCC1CN(Cc2cnn(C)c2)Cc2ncn(C)c21 (stereo not drawn)	-7.87%
CC[C@@H]1N(Cc2ccncc2)CCC[C@]12CCC(=O)N2CCOC	-4.38%
COCC1c2c(cnn2C)CCN1Cc1ccoc1 (stereo not drawn)	-3.89%
CC(C)CN1C[C@H]2CCN(C(=O)NC3CCCC3)CC[C@H]2S1(=O)=O	-9.06%
CCCOc1ccc(Cl)cc1NC(=O)NCCC(=O)N(C)C	4.12%
COc1ccccc1-c1cc(C(=O)N(C)C)c2cnn(C)c2n1	-11.2%
NC(=O)CN1CCCCC1c1ccc(-n2ccnc2)nc1 (stereo not drawn)	-3.85%
O=C1CN(CCS(=O)(=O)c2ccc(Cl)cc2)CCN1	-11.9%
COc1ccc(S(=O)(=O)N2CCC[C@@H]3CN(C(=O)C4CC4)C[C@@H]32)cc1F	21.2%
NC(=O)C(Cc1ccccc1)NS(=O)(=O)Cc1ccccc1F (stereo not drawn)	-15%
Cc1csc2c(N3CCNC(C(=O)Nc4ccc(F)cc4)C3)ncnc12 (stereo not drawn)	-9.29%

SMILES	cytotoxicity at 70.5 h
CCCn1nc(C)c(CN2CC3(CCOC3)CCC2=O)c1C (stereo not drawn)	-8.62%
Cc1cnn(CC2CCN(CC(O)c3ccccc3Cl)CC2)c1 (stereo not drawn)	-3.1%
Cc1ccc(S(=O)(=O)NCC2COCc3c(C)nnn3C2)cc1F (stereo not drawn)	7.81%
CCC(C)(N)c1nc(=O)c(C)c(C)[nH]1 (stereo not drawn)	-7.88%
O=C(c1ccc[nH]1)N1Cc2nccn2CC(COc2cccnc2)C1 (stereo not drawn)	18.1%
CCCNC(=O)CCNC(=O)Cc1nc(-c2ccco2)oc1C	-4.05%
CCN(CCOC)C(=O)CCc1scnc1C	-2.82%
Fc1cnccc1CN1CCCC2(CCN(c3ncccn3)CC2)C1	-5.15%
O=C1c2cnc(N3CCCC3)nc2CN1C1CCS(=O)(=O)C1 (stereo not drawn)	-2.78%
NC(=O)CN1CCCC(Cc2ccc(N)nn2)C1 (stereo not drawn)	36.2%
CCn1cc(S(=O)(=O)NC(=O)CCc2c[nH]c3ccccc23)cn1	-0.706%
Cc1cc(N2CCOC(c3ccncn3)C2)ncn1 (stereo not drawn)	-0.0886%
CCn1ccc(C(=O)NCCCN2CCOCC2)n1	-11.6%
COc1ccc(NC(=O)CCn2nc(-c3cccs3)oc2=O)cc1OC	-5.48%
CC1(C)OC(=O)N(CCCC(=O)c2ccc(F)cc2)C1=O	-16.8%
CCOCC(O)CN1CCN(C(=O)c2cccc(F)c2)CC1 (stereo not drawn)	-7.93%
O=C1[C@H]2CN(Cc3ccco3)C[C@H]2CN1c1cncnc1	-5.56%
CSc1cccc(NC(C)C(=O)Nc2nccs2)c1 (stereo not drawn)	6.07%
CCN(Cc1ccc(O)c(C(=O)O)c1)CC1CCCO1 (stereo not drawn)	24.1%
CC(C)(C)c1cn(C2CCN(C(=O)c3cncnc3)CC2)nn1	18%
Cc1cc(C)c(CNC(=O)N2CCCC2C(N)=O)c(=O)[nH]1 (stereo not drawn)	-4.33%
c1cnn(CC2CCCCN2Cc2nc(-c3ccoc3)no2)c1 (stereo not drawn)	3.95%
Cc1ccc([C@H]2CN(C(=O)CC3CCC3)C[C@@H]2N)o1	0.0304%

SMILES	cytotoxicity at 70.5 h
O=S(=O)(NC1CCN(CC(F)(F)F)C1)c1cc(F)cc(F)c1 (stereo not drawn)	12.7%
CNc1ncccc1CN1CCN(C)CC(C(N)=O)C1 (stereo not drawn)	25.3%
COc1cccc(-c2ncc3c(n2)N(C)CCN(CCN(C)C)C3=O)c1	-6.84%
COCCN(Cc1ccc(F)cc1Cl)C(=O)c1ccccn1	9.84%
CC(C)(C)c1n[nH]c(C2CN(CCc3ccncc3)CCO2)n1 (stereo not drawn)	0.424%
Cc1nn(C)c(Oc2cccc(F)c2)c1NC(=O)C1CCOCC1	-14.1%
O=C1c2cnc(N3CCOCC3)nc2CN1C1CCS(=O)(=O)C1 (stereo not drawn)	5.93%
Cc1nn(C)c(Cl)c1C1CCCN1C(=O)c1cccn1C (stereo not drawn)	-10.5%
CCN(Cc1csc(CS(C)(=O)=O)n1)c1cccc(CO)c1	-6.41%
Cc1ccc(CN2CCCC2(C(N)=O)c2cnccn2)c(C)c1 (stereo not drawn)	-0.964%
O=C(NCCCn1cccn1)c1nc2ccccc2[nH]1	-10.1%
O=c1cnc2ccccc2n1CCCn1ccnc1	-16.2%
CC(NC(=O)NCCCn1ccnc1)c1nncn1C (stereo not drawn)	-2.89%
COCc1cncc2c1CCN(C(=O)c1cccc(C#N)c1)C2	-8.16%
OCC1(Cc2ccc(Cl)cc2)CCN(Cc2cccnc2)CC1	10.8%
CN(C)CCNC(=O)[C@H]1C[C@H]2CN(c3ncccn3)C[C@H]2N1C	-2.47%
O=C([C@@H]1COC[C@H]2CN(c3ccncn3)C[C@H]21)N1CCCCO1	-6.51%
O=C(O)[C@]12CCCN(Cc3cccs3)C[C@H]1CN(c1ncccn1)C2	-9.42%
Cn1cccc1C(=O)N1CCc2ccc(=O)n(C)c2CC1	-6.17%
O=C(c1ccco1)N1C[C@H]2CCCN(Cc3ccc(F)cc3)[C@H]2C1	-9.54%
Cn1cc(CN2CCOC[C@H]2c2nc(C(C)(C)C)co2)c2ccccc21	-2.71%
N#Cc1ccccc1OCCN1CCCCC1C(=O)N1CCOCC1 (stereo not drawn)	7.77%
CCN(CC)C(CNC(=O)c1ccc(-n2cncn2)cc1)c1ccsc1 (stereo not drawn)	-3.69%

SMILES	cytotoxicity at 70.5 h
COCc1nc(CN2CC(Cc3ccccc3)CC2=O)no1 (stereo not drawn)	-8.93%
O=C(O)[C@@H]1CN(C2CCCCC2)C[C@H]1C1CC1	-13.9%
O=C(O)c1ccccc1-n1cc(CN2CCC(c3cc[nH]n3)C2)cn1 (stereo not drawn)	-2.77%
COCCN1CCN(Cc2nc(-c3ccoc3)no2)CC1	-4.32%
Cc1c(C2CCCN(C(=O)C3CC3)C2)n2c(nc1=O)CCC2 (stereo not drawn)	-3.86%
COc1ccc(CNC(=O)Nc2ccc(CN3CCOC3=O)cc2)cc1	-0.36%
Cc1nc(CN2CCC3(CC2)NC(=O)CC3c2cccnc2)cs1 (stereo not drawn)	-8.17%
CCC(=O)N1CC[C@H]2[C@H](C[C@@H](CN3CCCC3)N2c2nccs2)C1	-3.2%
CCOc1cccc(C(=O)N2CCC(c3n[nH]c(C4CC4)n3)CC2)c1	-8.11%
O=C([C@H]1COC[C@H]2CN(C3CCOCC3)C[C@H]21)N1CCC(F)CC1	-8.13%
NC(=O)CN1CC2(CCC1=O)CCN(C(=O)c1ccccc1F)CC2	33.9%
CCCNC(=O)COc1cccc(-c2nc(C(C)C)no2)c1	0.882%
CCC(C)(CC(=O)OC)NC(=O)c1cccc(F)c1F (stereo not drawn)	-14.7%
Cc1nn(C)c(N2CCOCC2)c1CNC1CCc2ccccc2C1 (stereo not drawn)	16.6%
CN1Cc2ccccc2NC(=O)C12CCNC2 (stereo not drawn)	-2.63%
CN1CCN(Cc2c(Cl)ccc(O)c2Cl)CC1C(=O)O (stereo not drawn)	-16.7%
CNC(=O)C1Cn2ccnc2C2(CCN(Cc3cccc(C)n3)CC2)O1 (stereo not drawn)	0.339%
Cc1cc(NC2CCN(c3ccc(F)cc3)CC2)n2nc(C)cc2n1	-1.64%
OCCc1ccccc1-n1ccnc1-c1cn(C2CCNCC2)nn1	27.2%
O=C(CO)N1CCC(F)(F)C2(CCN(c3ccccc3)C2)C1 (stereo not drawn)	1.4%
Nc1cc(N2CCCC(COc3ccc(F)cc3)C2)ncn1 (stereo not drawn)	-12.7%
Cc1cccc2c1CCN(c1cc(N3CCCC3CO)ncn1)C2 (stereo not drawn)	-10.5%
O=C(O)c1ccnc2c(Br)cccc12	-3.81%

SMILES	cytotoxicity at 70.5 h
CO[C@@H]1CCN(S(=O)(=O)c2cccs2)[C@H]1Cc1ccccc1	-0.149%
COc1ccccc1Nc1nc2c(s1)C(=O)CN(C(=O)CC(C)C)C2	2.87%
CCOc1ccccc1Nc1nc2c(C)nn(C)c2c(=O)n1C	8.71%
Cc1cnn(CC2CCCN2Cc2nnc(C3CC3)o2)c1 (stereo not drawn)	13.5%
CN(C)c1ccc(CNC(=O)NCCc2ccccn2)cn1	-12.8%
Cc1nnc(Cn2cc(I)cc(C)c2=O)o1	3.35%
CCC(C)Oc1ccc(CNCCNC(C)=O)cc1OC (stereo not drawn)	-6.94%
NC(=O)C1(c2cnccn2)CCCN1C(=O)Cc1ccsc1 (stereo not drawn)	-5.34%
COc1nccnc1N1CCN(Cc2ccc3c(c2)OCO3)C(=O)C1	20.7%
c1ccc(CN2Cc3[nH]nc(COc4cccnc4)c3C2)nc1	-7.63%
CC(C)CNC(=O)N1C[C@H]2CCN[C@H]2C1	-8.65%
COCCn1cc(-c2cc(C(=O)N3CCCC3)c3ccccn23)nc1C	-0.704%
CS(=O)(=O)Nc1ccc2c(c1)NC(=O)CC2c1cnn2cccnc12 (stereo not drawn)	17.5%
CC1CCC(NS(=O)(=O)CC(=O)Nc2ccccc2N2CCCC2)CC1 (stereo not drawn)	-1.66%
Cc1noc(C)c1CN(C)Cc1csc(-c2ncccn2)n1	-3.82%
NC(=O)CN1CCCN(C(=O)c2ccn(-c3ccccc3)n2)CC1	-3.77%
CS(=O)(=O)N1CCOCC2(CCN(c3cnccn3)CC2)C1	-7.29%
CCCn1nccc1S(=O)(=O)N1CCC2(CCCN(C(C)C)C2=O)C1 (stereo not drawn)	17.4%
Cc1nc(C)n(C2CCCN(C(=O)c3csnn3)C2)n1 (stereo not drawn)	-11.1%
CC(C)(C)CN1CCC(c2nnc(Cn3ccnc3)n2C2CC2)CC1	-3.87%
Cn1cc(CN2CCC(c3ncc(Cl)cc3S(C)(=O)=O)CC2)cn1	-6.32%
